“Also recorded” adds a separate entry of the source.

Assay type in all cases: cell-based
In assay [1] the test system is MSTO-211H-HNB^i. Description: Proliferation after Doxycycline-induced HNB expression, MSTO-211H-HNB^i. The note with it: following Doxycycline treatment. On the procedure: (§1) In addition, an inducible lentiviral system was developed, in which the transgene could be expressed under a Doxycycline inducible promoter. The system was verified by inserting eGFP as the transgene and by flow analysis of GFP^+ cells in absence and presence of doxycycline as shown in FIG. 8. […] The same system was used to clone HNB under the regulation of a Doxycycline inducible promoter and generate the cell lines MSTO-211H-HNB^i and U2OS-HNB^i. […] Western blot analysis was performed of Myc protein in Hi-Myc cell line MSTO-211H-HNB^i.

In assay [2] the test system is Hi- and Lo-Myc cell lines. Description: Proliferation of Hi- and Lo-Myc cell lines transfected with lentiviral vectors expressing GFP, HNB or HNB(ATG>TGA). The note with it: 8 Hi- and Lo-Myc cell lines; lentiviral overexpression. An excerpt:
To determine the function of the HNB, the Hi- and Lo-Myc cell lines were transfected with lentiviral vectors expressing GFP, HNB or HNB where the start site has been mutated (HNB(ATG>TGA)).

The test system of assay [3] is Myc protein. Description: Western blot of Myc protein after Doxycycline-induced HNB expression in MSTO-211H-HNB^i. The following applies: Hi-Myc cell line MSTO-211H-HNB^i; following Doxycycline induction. The protocol:
as §1
(In general: In western blotting, separated proteins are transferred to a membrane and probed.)

For assay [4], the system named is U2OS-HNB^i. Description: Proliferation after Doxycycline-induced HNB expression, U2OS-HNB^i. The note with it: following Doxycycline treatment. The protocol: as §1

Regarding “HNB: 14 amino acid micro-peptide MKTQLGAVKGFLHV (SEQ ID NO: 1) coded by shORF at Exon 3-4 junction of PVT1ts; expressed from lentiviral vectors”, the proliferation rate result in assay [1] and in assay [4] was “significant reduction in their proliferation rates” in each case. In assay [2], the proliferation result is listed as “failed to proliferate”. In addition, in assay [3], the “Myc protein expression (western blot, relative to β-Actin)” value is “decreased; also recorded: reduced MYC protein”.
